Experimental data: article PMC12735872, “Development of ^18F/^11C-Labeled Pyrrolo-Pyridine/Pyrimidine LRRK2 Selective PET Radioligands” (Pharmaceuticals, 2025)

How the values were obtained:
cynomolgus monkey brain = assay: In vivo PET imaging in cynomolgus monkeys; design: VT/fp: unit not given beside the values; VT: unit not given here
From the text: PET measurements were led using a high-resolution research tomograph (HRRT) from Siemens Molecular Imaging (Knoxville, TN, USA). List mode data were reconstructed using the ordinary Poisson-3D-ordered subset expectation maximization (OP-3D-OSEM) algorithm, with 10 repetitions and 16 subsets while modeling the point spread function (PSF). The in-plane resolution accomplished with OP-3D-OSEM and PSF was 1.5 mm full width at half maximum (FWHM) at the center of the field of view (FOV) and 2.4 mm at 10 cm off-center.
The study was approved by the Animal Ethics Committee of the Swedish Animal Welfare Agency and was performed according to “Guidelines for planning, conducting and documenting experimental research” (Dnr 5.2.18-4170/14 issued on 11 April 2014) of the KI as well as the “Guide for the Care and Use of Laboratory Animals” [26]. NHPs were supplied by the Astrid Fagraeus Laboratory (AFL) of the Swedish Institute for Infectious Disease Control (SMI), Solna, Sweden. Anesthesia was brought by intramuscular injection of ketamine hydrochloride (approximately 10 mg/kg) at AFL and continued with a mixture of sevoflurane (0–8.0%), oxygen, and medical air through endotracheal intubation at the KI PET center. The NHP head was immobilized using a homemade fixation device. Body temperature was maintained with a Bair Hugger model 505 (Arizant Healthcare, Eden Prairie, MN, USA) and monitored via an esophageal thermometer. ECG, heart rate, respiratory rate, blood pressure, and oxygen saturation were continuously examined throughout the experiments. The fluid balance was retained with continuous infusion of saline.
A 6 min transmission scan was performed before the injection of the radioligand using a single Cs-137 source. List mode data was acquired continuously for 93 min following intravenous administration of the radioligand. Images were reconstructed into 38 frames with varying intervals: […].
For all PET measurements, radioligands were administered via intravenous injection. Regions of interest (ROIs) were manually delineated on MRI images for each NHP, for the whole brain, cerebellum, caudate, putamen, thalamus, frontal cortex, temporal cortex, amygdala, posterior cingulate cortex, anterior cingulate cortex, hippocampus, occipital cortex, parietal cortex, ventral striatum, and insula. The summed PET images over the entire duration were co-registered with the individual NHP’s MRI image. After applying the co-registration parameters to the dynamic PET data, time–activity curves were generated for each brain region for every PET measurement. The standardized uptake value (SUV) was calculated for each brain region. The total distribution volume (VT) for all three radioligands were derived using one-tissue compartment (1-TC) and two-tissue compartment (2-TC) models.
On two separate occasions, PET measurements were performed after intravenous administration of GEN-7915 or PFE-360 with a slow infusion in one NHP (NHP2). The infusion lasted for 2 min, starting 30 min before PET scanning. The pretreatment formulations were prepared by dissolving it in DMSO (5%), Kolliphor EL (15%), and PBS (80%), and the pH of the final formulation was approximately 4.5–5.0. An automated blood sampling system (ABSS) measured continuous radioactivity for the first 3 min following the radioligand injection, while manual blood samples were taken at 4, 15, 30, 60, and 90 min post-injection to measure the radioactivity and metabolism.

LRRK2 = assay: In vitro autoradiography, NHP brain slices; format: binding; settings: baseline
Description: Whole brain hemispheres were sectioned into horizontal slices with a thickness of 100 µm using a Leica cryomacrocut system. The autoradiographic procedures followed the same protocols established in previous studies conducted in our laboratory. The whole-hemisphere sections of 100 micron thickness were incubated for 90 min at room temperature with their corresponding radiotracer (4 MBq/200 mL) in TRIS buffer (pH 7.4) containing sodium chloride (120 mM), potassium chloride (5 mM), calcium chloride (2 mM), and albumin (0.1% w/v). After incubation, sections were washed three times in the same buffer at room temperature for five minutes each, briefly dipped in ice-cold distilled water, dried, and then placed in the phosphor imaging plates. Binding density standards were prepared by serial dilution of the radioligand stock solution in the assay buffer. Readings were taken with the Fujifilm BAS-5000 (Fujifilm, Tokyo, Japan), while quantitative analysis was conducted with the Multi Gauge 3.2 image analysis software (Fujifilm, Tokyo, Japan). For blocking experiments, adjacent brain sections were co-incubated with LuAF66583 (0.1 µM or 10 µM). […] The thickness differed from human tissue (20 µm).

[1] = ACC, 1-TC model, pretreatment GEN-7915 (40 mg/kg)
[2] = ACC, 1-TC model, pretreatment PFE-360 (0.5 mg/kg)
[3] = ACC, 2-TC model, pretreatment GEN-7915 (40 mg/kg)
[4] = ACC, 2-TC model, pretreatment PFE-360 (0.5 mg/kg)
[5] = AMY, 1-TC model, pretreatment GEN-7915 (40 mg/kg)
[6] = AMY, 1-TC model, pretreatment PFE-360 (0.5 mg/kg)
[7] = AMY, 2-TC model, pretreatment GEN-7915 (40 mg/kg)
[8] = AMY, 2-TC model, pretreatment PFE-360 (0.5 mg/kg)
[9] = CAU, 1-TC model, pretreatment GEN-7915 (40 mg/kg)
[10] = CAU, 1-TC model, pretreatment PFE-360 (0.5 mg/kg)
[11] = CAU, 2-TC model, pretreatment GEN-7915 (40 mg/kg)
[12] = CAU, 2-TC model, pretreatment PFE-360 (0.5 mg/kg)
[13] = CB, 1-TC model, pretreatment GEN-7915 (40 mg/kg)
[14] = CB, 1-TC model, pretreatment PFE-360 (0.5 mg/kg)
[15] = CB, 2-TC model, pretreatment GEN-7915 (40 mg/kg)
[16] = CB, 2-TC model, pretreatment PFE-360 (0.5 mg/kg)
[17] = FC, 1-TC model, pretreatment GEN-7915 (40 mg/kg)
[18] = FC, 1-TC model, pretreatment PFE-360 (0.5 mg/kg)
[19] = FC, 2-TC model, pretreatment GEN-7915 (40 mg/kg)
[20] = FC, 2-TC model, pretreatment PFE-360 (0.5 mg/kg)
[21] = PUT, 1-TC model, pretreatment GEN-7915 (40 mg/kg)
[22] = PUT, 1-TC model, pretreatment PFE-360 (0.5 mg/kg)
[23] = PUT, 2-TC model, pretreatment GEN-7915 (40 mg/kg)
[24] = PUT, 2-TC model, pretreatment PFE-360 (0.5 mg/kg)
[25] = THA, 1-TC model, pretreatment GEN-7915 (40 mg/kg)
[26] = THA, 1-TC model, pretreatment PFE-360 (0.5 mg/kg)
[27] = THA, 2-TC model, pretreatment GEN-7915 (40 mg/kg)
[28] = THA, 2-TC model, pretreatment PFE-360 (0.5 mg/kg)

Compound: C[C@@H]1C[C@@H]([18F])CN1c1c(C#N)c2c(N)nccc2n1C [[^18F]1, 4-Amino-2-((2R,4R)-4-[^18F]fluoro-2-methylpyrrolidin-1-yl)-1-methyl-1H-pyrrolo[3,2-c]pyridine-3-carbonitrile]
- VT (cynomolgus monkey brain; ACC, 1-TC model, Baseline): 6.03
- VT/fp (cynomolgus monkey brain; ACC, 1-TC model, Baseline): 17.7
- VT (cynomolgus monkey brain; [1]): 8.50
- VT/fp (cynomolgus monkey brain; [1]): 20.9
- VT (cynomolgus monkey brain; [2]): 9.28
- VT/fp (cynomolgus monkey brain; [2]): 20.2
- VT (cynomolgus monkey brain; ACC, 2-TC model, Baseline): 6.04
- VT (cynomolgus monkey brain; [3]): 8.71
- VT/fp (cynomolgus monkey brain; [3]): 21.4
- VT (cynomolgus monkey brain; [4]): 9.39
- VT/fp (cynomolgus monkey brain; [4]): 20.4
- VT (cynomolgus monkey brain; AMY, 1-TC model, Baseline): 6.15
- VT/fp (cynomolgus monkey brain; AMY, 1-TC model, Baseline): 18.1
- VT (cynomolgus monkey brain; [5]): 7.29
- VT/fp (cynomolgus monkey brain; [5]): 17.9
- VT (cynomolgus monkey brain; [6]): 7.56
- VT/fp (cynomolgus monkey brain; [6]): 16.4
- VT (cynomolgus monkey brain; AMY, 2-TC model, Baseline): 6.23
- VT/fp (cynomolgus monkey brain; AMY, 2-TC model, Baseline): 18.3
- VT (cynomolgus monkey brain; [7]): 7.36
- VT/fp (cynomolgus monkey brain; [7]): 18.1
- VT (cynomolgus monkey brain; [8]): 7.78
- VT/fp (cynomolgus monkey brain; [8]): 16.9
- VT (cynomolgus monkey brain; CAU, 1-TC model, Baseline): 5.83
- VT/fp (cynomolgus monkey brain; CAU, 1-TC model, Baseline): 17.2
- VT (cynomolgus monkey brain; [9]): 7.78
- VT/fp (cynomolgus monkey brain; [9]): 19.1
- VT (cynomolgus monkey brain; [10]): 8.50
- VT/fp (cynomolgus monkey brain; [10]): 18.5
- VT (cynomolgus monkey brain; CAU, 2-TC model, Baseline): 5.87
- VT/fp (cynomolgus monkey brain; CAU, 2-TC model, Baseline): 17.3
- VT (cynomolgus monkey brain; [11]): 7.89
- VT/fp (cynomolgus monkey brain; [11]): 19.4
- VT (cynomolgus monkey brain; [12]): 8.50
- VT/fp (cynomolgus monkey brain; [12]): 18.5
- VT (cynomolgus monkey brain; CB, 1-TC model, Baseline): 4.13
- VT/fp (cynomolgus monkey brain; CB, 1-TC model, Baseline): 12.2
- VT (cynomolgus monkey brain; [13]): 5.03
- VT/fp (cynomolgus monkey brain; [13]): 12.3
- VT (cynomolgus monkey brain; [14]): 5.67
- VT/fp (cynomolgus monkey brain; [14]): 12.3
- VT (cynomolgus monkey brain; CB, 2-TC model, Baseline): 4.41
- VT/fp (cynomolgus monkey brain; CB, 2-TC model, Baseline): 13.0
- VT (cynomolgus monkey brain; [15]): 5.08
- VT/fp (cynomolgus monkey brain; [15]): 12.5
- VT (cynomolgus monkey brain; [16]): 5.69
- VT/fp (cynomolgus monkey brain; [16]): 12.4
- VT (cynomolgus monkey brain; FC, 1-TC model, Baseline): 5.26
- VT/fp (cynomolgus monkey brain; FC, 1-TC model, Baseline): 15.5
- VT (cynomolgus monkey brain; [17]): 6.53
- VT/fp (cynomolgus monkey brain; [17]): 16.0
- VT (cynomolgus monkey brain; [18]): 7.68
- VT/fp (cynomolgus monkey brain; [18]): 16.7
- VT (cynomolgus monkey brain; FC, 2-TC model, Baseline): 5.26
- VT/fp (cynomolgus monkey brain; FC, 2-TC model, Baseline): 15.5
- VT (cynomolgus monkey brain; [19]): 6.74
- VT/fp (cynomolgus monkey brain; [19]): 16.5
- VT (cynomolgus monkey brain; [20]): 7.72
- VT/fp (cynomolgus monkey brain; [20]): 16.8
- Brain uptake (cynomolgus monkey brain; PET, iv, baseline): > 3 %ID
- Brain washout (cynomolgus monkey brain; PET, iv, baseline): rapid washout
- Regional distribution of brain uptake (cynomolgus monkey brain; PET, iv, baseline): regional differences in uptake
- VT (cynomolgus monkey brain; PUT, 1-TC model, Baseline): 5.71
- VT/fp (cynomolgus monkey brain; PUT, 1-TC model, Baseline): 16.8
- VT (cynomolgus monkey brain; [21]): 7.56
- VT/fp (cynomolgus monkey brain; [21]): 18.6
- VT (cynomolgus monkey brain; [22]): 8.25
- VT/fp (cynomolgus monkey brain; [22]): 17.9
- VT (cynomolgus monkey brain; PUT, 2-TC model, Baseline): 5.89
- VT/fp (cynomolgus monkey brain; PUT, 2-TC model, Baseline): 17.3
- VT (cynomolgus monkey brain; [23]): 7.71
- VT/fp (cynomolgus monkey brain; [23]): 18.9
- VT (cynomolgus monkey brain; [24]): 8.25
- VT/fp (cynomolgus monkey brain; [24]): 17.9
- VT (cynomolgus monkey brain; THA, 1-TC model, Baseline): 4.80
- VT/fp (cynomolgus monkey brain; THA, 1-TC model, Baseline): 14.1
- VT (cynomolgus monkey brain; [25]): 6.05
- VT/fp (cynomolgus monkey brain; [25]): 14.9
- VT (cynomolgus monkey brain; [26]): 6.68
- VT/fp (cynomolgus monkey brain; [26]): 14.5
- VT (cynomolgus monkey brain; THA, 2-TC model, Baseline): 4.95
- VT/fp (cynomolgus monkey brain; THA, 2-TC model, Baseline): 14.6
- VT (cynomolgus monkey brain; [27]): 6.18
- VT/fp (cynomolgus monkey brain; [27]): 15.2
- VT (cynomolgus monkey brain; [28]): 6.68
- VT/fp (cynomolgus monkey brain; [28]): 14.5
- Binding of radioligand in brain slices (ARG) (LRRK2): clear binding

Compound: C[C@@H]1C[C@@H]([18F])CN1c1c(C#N)c2c(N)ncnc2n1C [[^18F]2, 4-Amino-6-((2R,4R)-4-[^18F]fluoro-2-methyl Pyrrolidin-1-yl)-7-methyl-7H-pyrrolo[2,3-d]pyrimidine-5-carbonitrile]
- Brain uptake at peak (cynomolgus monkey brain; PET, iv, baseline): 3.8–4.4 %ID
- Brain washout (cynomolgus monkey brain; PET, iv, baseline): fast washout
- Regional distribution of brain uptake (cynomolgus monkey brain; PET, iv, baseline): relatively uniform distribution across all the brain regions
- Time to reach half the peak brain level (cynomolgus monkey brain; PET, iv, baseline): ≤ 20 min
- Binding of radioligand in brain slices (ARG) (LRRK2): displayed binding
